Measured values published in ChEMBL document CHEMBL1201862, “PubChem BioAssay data set” (2004).
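Interpolation was linear, between the two tested concentrations surrounding the appropriate level; five concentrations were tested over 48 hours in 96-well plates. GI50 marks 50% less growth.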 The source made the active and inactive calls. Rule as the data show it: active = GI50 up to about 1.1 µM and inactive = higher.

What was measured:
Experiment in all cases: DTP human tumour cell line panel, 48 h
HCT-15 = tested on: HCT-15
M14 = tested on: M14
ACHN = tested on: ACHN
SF-539 = tested on: SF-539
HT-29 = tested on: HT-29
SF-268 = tested on: SF-268
SK-MEL-5 = tested on: SK-MEL-5
MCF7 = tested on: MCF7
A549 = tested on: A549
Hs-578T = tested on: Hs-578T
COLO 205 = tested on: COLO 205
HL-60 = tested on: HL-60
HCT-116 = tested on: HCT-116
SK-MEL-2 = tested on: SK-MEL-2
SW-620 = tested on: SW-620
OVCAR-4 = tested on: OVCAR-4
MDA-MB-435 = tested on: MDA-MB-435
NCI-H23 = tested on: NCI-H23
UO-31 = tested on: UO-31
UACC-62 = tested on: UACC-62

| SMILES | GI50 (HCT-15) [µM] | GI50 (M14) | GI50 (ACHN) | GI50 (SF-539) | GI50 (HT-29) | GI50 (SF-268) | GI50 (SK-MEL-5) | GI50 (MCF7) | GI50 (A549) | GI50 (Hs-578T) | GI50 (COLO 205) | GI50 (HL-60) | GI50 (HCT-116) | GI50 (SK-MEL-2) | GI50 (SW-620) | GI50 (OVCAR-4) | GI50 (MDA-MB-435) | GI50 (NCI-H23) | GI50 (UO-31) | GI50 (UACC-62) |
| --- | --- | --- | --- | --- | --- | --- | --- | --- | --- | --- | --- | --- | --- | --- | --- | --- | --- | --- | --- | --- |
| N=C(N)NC(=N)Nc1ccc(S(N)(=O)=O)cc1 | > 100 | > 100 µM (inactive) | > 100 µM (inactive) | > 100 µM (inactive) | > 100 µM (inactive) | > 100 µM (inactive) | > 100 µM (inactive) | > 100 µM (inactive) | > 100 µM (inactive) | > 100 µM (inactive) | > 100 µM (inactive) | > 100 µM (inactive) | > 100 µM (inactive) | > 100 µM (inactive) | > 100 µM (inactive) | > 100 µM (inactive) | > 100 µM (inactive) | > 100 µM (inactive) | > 100 µM (inactive) | > 100 µM (inactive) |
| COC(=O)c1ccc2c(c1)C(NC(C)=O)CCc1cc(OC)c(OC)c(OC)c1-2 (centres undefined) | 0.0366 | 0.0153 µM (active) | 0.018 µM (active) | 0.0124 µM (active) | 0.0125 µM (active) | 0.0139 µM (active) | 0.013 µM (active) | 0.0612 µM (active) | 0.018 µM (active) | 0.0122 µM (active) | 0.0119 µM (active) | 0.0136 µM (active) | < 0.0114 µM (active) | 0.0208 µM (active) | 0.0129 µM (active) | 11.9 µM (inactive) | < 0.01 µM (active) | 0.0136 µM (active) | 0.0721 µM (active) | 0.0131 µM (active) |
| CCOC(=O)c1ccc(-c2cccs2)[nH]1 | 26.9 | 63.5 µM (inactive) | 78.9 µM (inactive) | > 100 µM (inactive) | 54 µM (inactive) | > 92 µM (inactive) | 30.8 µM (inactive) | 53.7 µM (inactive) | > 62.5 µM (inactive) | 76.9 µM (inactive) | 60.7 µM (inactive) | 38.8 µM (inactive) | 68.5 µM (inactive) | > 100 µM (inactive) | > 84.7 µM (inactive) | 31.6 µM (inactive) | 44.3 µM (inactive) | 67.5 µM (inactive) | 50 µM (inactive) | 52.7 µM (inactive) |
| COc1ccc2nc3cc([N+](=O)[O-])ccc3c(NNc3ccccc3)c2c1 | 22.6 | 27.5 µM (inactive) | 30 µM (inactive) | 26.8 µM (inactive) | 13.8 µM (inactive) | 30.8 µM (inactive) | 16.7 µM (inactive) | 10.8 µM (inactive) | 13.9 µM (inactive) | 26.5 µM (inactive) | 10.8 µM (inactive) | 18.7 µM (inactive) | 11.4 µM (inactive) | 27.4 µM (inactive) | 17.3 µM (inactive) | 60.7 µM (inactive) | 29.6 µM (inactive) | 34.7 µM (inactive) | 31.4 µM (inactive) | 2 µM (inactive) |
| Cc1cc2c(cc1-c1cc3c(cc1C)C(C(C)C)=C(O)C(=O)/C3=C\Nc1c3ccccc3nc3ccccc13)/C(=C/Nc1c3ccccc3nc3ccccc13)C(=O)C(O)=C2C(C)C | 3.85 | 2.67 µM (inactive) | 1.49 µM (inactive) | 3.86 µM (inactive) | 1.54 µM (inactive) | 3.36 µM (inactive) | 3.99 µM (inactive) | 3.17 µM (inactive) | 2.97 µM (inactive) | 3.77 µM (inactive) | 1.99 µM (inactive) | 2.78 µM (inactive) | 6.25 µM (inactive) | 5.58 µM (inactive) | 2.9 µM (inactive) | 3.15 µM (inactive) | 4.6 µM (inactive) | 3.66 µM (inactive) | 3.03 µM (inactive) | 3.66 µM (inactive) |
| COc1cc(OC2OC(COC(=O)c3cc(O)c(O)c(O)c3)C(O)C(O)C2O)ccc1O (centres undefined) | > 100 | 90.8 µM (inactive) | 55.1 µM (inactive) | > 100 µM (inactive) | 70.5 µM (inactive) | 82 µM (inactive) | > 100 µM (inactive) | 53.8 µM (inactive) | > 100 µM (inactive) | > 100 µM (inactive) | > 100 µM (inactive) | 93.1 µM (inactive) | > 100 µM (inactive) | > 100 µM (inactive) | 40.3 µM (inactive) | 55.3 µM (inactive) | 24.4 µM (inactive) | > 100 µM (inactive) | 33.2 µM (inactive) |  |
| CC1=C2O[C@]3(O)C=C2C(=C(O)C1=O)[C@@H]1O[C@H](CC[C@H](C)/C=C(\C)C[C@@H](C)C[C@@H]3C)[C@H](C)[C@H](O)[C@H]1C [KENDOMYCIN] | 0.124 | 0.161 µM (active) | 0.132 µM (active) | 0.173 µM (active) | 0.181 µM (active) | 0.354 µM (active) | 0.498 µM (active) | 0.179 µM (active) | 0.982 µM (active) | 0.289 µM (active) | 0.125 µM (active) | 0.145 µM (active) | 0.176 µM (active) | 0.247 µM (active) | 0.582 µM (active) | 0.194 µM (active) | 0.145 µM (active) | 0.316 µM (active) | 0.193 µM (active) | 0.233 µM (active) |
